Publication PMC8224453, “A New PqsR Inverse Agonist Potentiates Tobramycin Efficacy to Eradicate Pseudomonas aeruginosa Biofilms” (Advanced Science, 2021)

System: P. aeruginosa NH57388A
Test: Murine mucoid lung infection model, target engagement
Assay type: in vivo, Pseudomonas aeruginosa
Procedure: We, therefore, decided to make use of a murine sub‐chronic infection model with a mucoid infection phenotype specifically enabling to assess the on‐target activity of QSIs. […] Animals were immediately treated with QSI 4 co‐administered using methyl cellulose (dose = 5 mg kg^−1) or vehicle (control), followed by further treatments at 24 and 48 h post‐infection. The lungs were harvested at 72 h time point, homogenized and extracted using ethyl acetate. As a readout for target engagement, we quantified the signal molecule levels of HHQ, PQS, and HQNO as proximal biomarkers for the activity of the bacterial target. […] In addition, we measured bacterial burden in form of CFU count as a treatment endpoint (Section S6.3, Supporting Information). […] Moreover, CFU was reduced by four‐fold upon treatment with QSI 4 (see Table S11 in the Supporting Information). […] However, considering the impact of the host immune system on bacterial clearance and the action of some PqsR‐controlled virulence factors toward immune‐system evasion (biofilm formation, pyocyanin production, elastase LasB expression), an indirect effect on the bacterial load in the lungs is plausible. However, it has to be stated that this effect is only minor compared to typical 2‐ to 4‐log unit reductions achieved by early antibiotic treatment.^[ ^31 ^]
6.3. Design of in vivo Target Engagement Study
General. Mouse experiments were approved by the Landesamt für Soziales, Gesundheit und Verbraucherschutz of the State of Saarland in accordance with the national guidelines for animal treatment on August, 17th, 2017 (22/2017). The IVC unit was located within a biosafety level 2 laboratory and mice were allowed to acclimatize to their environment for at least seven days prior to the experiment. Throughout the experiment, the mice had access to water and food ad libitum.
Background studies were performed in order to generate typical mean and standard deviation values for biomarkers of the control group. Sample size was calculated using BiAS.
(Software Version 11.08) from these values with alpha = 0.05 and P = 0.8 for biomarker reduction of 80% resulting in a sample size of ten mice or higher for a two-sample t-test.
Primary study. Ten-week old female C57BL/6N mice were housed in an individually ventilated-cage unit with ten mice per cage and twenty mice in total. One group (from one cage) was treated with compound 4, while the other group received a sham treatment with vehicle. Mice were not randomized, and no blinding was applied.
For the infection, each mouse was anesthetized intraperitoneally with 2.025 mg of ketaminhydrochloride (Ursotamin, Serumwerk Bernburg, Germany) and 0.12 mg of xylazinhydrochloride (Xylazin, WDF, Serumwerk Bernburg). Lidocainhydrochloride (Xylocain; Aspen Pharma, Ireland) was used for local anesthesia of the epiglottis before endotracheal intubation with a flexible cannula and intra-tracheal application of the inoculum […]
Application of inoculum (start of infection, 0 h) using 20 µL viable P. aeruginosa NH57388A culture supplemented with sodium alginate (22 mg/mL, Sigma). These were mixed with 20 µL of either compound 4 (5 mg/kg BW suspended in 0.1% methylcellulose) or vehicle (0.1% methylcellulose) to conduct the first treatment simultaneously to infection via intra-tracheal application assisted by endotracheal intubation using a flexible cannula. Bacterial load was determined to be 5∙10^7 CFU per mouse by plating serial dilutions on LB-agar plates.
Subsequent treatments were performed at 24 and 48 h post infection with 20 µL of compound 4 (5 mg/kg BW suspended in 0.5% methylcellulose, 0.2 vol-% Tween-80) or vehicle (0.5% methylcellulose, 0.2 vol-% Tween 80) were administered intra-tracheally following the same procedure as the infection. 72 h post infection mice were euthanized, lungs were removed aseptically and homogenized in 500 µL sterile phosphate buffered saline over the course of […]
72 h. Again, bacterial load was determined by plating serial dilutions on LB-agar plates. The […]

[1] = treated group, n = 7, 72 h, below LLOQ

FC(F)(F)c1cc(NCc2cn(-c3ccc(Oc4ccccc4)cc3)nn2)ccn1 [Compound 4]
reduction of CFU / bacterial load upon treatment (mice, 5 mg kg^−1, 72 h): four‐fold
auto‐inducer levels (HHQ, PQS, HQNO) in infected lungs (mice, 5 mg kg^−1, 72 h, p < 0.05): reduced significantly
CFU/mouse Mean (treated group, n = 7, 72 h): 173600 CFU/mouse
CFU/mouse Median (treated group, n = 7, 72 h): 147500 CFU/mouse
HHQ Mean (treated group, n = 7, 72 h): 1.7 pmol
HHQ Median (treated group, n = 7, 72 h): 0.9 pmol
HQNO Mean (treated group, n = 7, 72 h): 5.2 pmol
HQNO Median (treated group, n = 7, 72 h): 2.3 pmol
PQS Mean [1]: 0.3 pmol
PQS Median [1]: 0.2 pmol
Reduction through treatment, CFU/mouse (treated vs untreated means): 77.3%
Reduction through treatment, HHQ (treated vs untreated means): 99.3%
Reduction through treatment, HQNO (treated vs untreated means): 98.3%
Reduction through treatment, PQS (treated vs untreated means): 99.1%
